The record followed here is patent US20240174690A1, “ANNULATED 2-AMINO-3-CYANO THIOPHENES AND DERIVATIVES FOR THE TREATMENT OF CANCER” (BOEHRINGER INGELHEIM INTERNATIONAL GMBH, priority 2021, published 2024).

Common to all, as to format: cell-based
The test system of one assay is NCI-H2122 cells. Briefly: NCI-H2122 CTG proliferation assay (120 h) (NSCLC, G12C). The note with it: Homo sapiens. In a few lines:
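NCI-H2122 cells (KRAS G12C NSCLC), 200 per well in RPMI with 10% FCS, were dosed with compound on day 1 and incubated 120 h at 37 °C. Viability was read by CellTiter-Glo luminescence as percent of DMSO control, and IC50 was fitted with a four-parameter model.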

The test system of a further assay is GP2D cells. The assay can be described thus: GP2D proliferation assay (120 h) (colorectal cancer, G12D). In a few lines: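 500 cells/well in DMEM + GlutaMAX + 10% FCS, exposed to a logarithmic compound dose series (DMSO-normalized) for 120 h. Viability read by CellTiter-Glo luminescence as percent of DMSO control, with an untreated T0 read at dosing; IC50 from four-parameter non-linear regression.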

Another assay has as its system MKN1 cells. The assay can be described thus: MKN1 CTG proliferation assay (120 h) (gastric cancer, wt amplified). The note with it: Homo sapiens. In outline:
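MKN1 gastric cancer cells (200–500 per well, RPMI + 10% FCS) given a logarithmic compound dose series and incubated 120 h. Viability by CellTiter-Glo luminescence as percent of DMSO controls. IC50 by four-parameter non-linear regression.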

Setting [1] is: MKN-1, assay 2, CTG 120 h, read-out: MKN1 (assay 2) IC50.
Where [2] appears, read: MKN-1, assay 3, CTG 120 h, read-out: MKN1 (assay 3) IC50.
[3] abbreviates: MKN-1, assay 1, CTG 120 h, read-out: MKN1 (assay 1) IC50.

Read-outs that look alike come from different tables or passages of the source.

As usually defined, the IC50 is the concentration that inhibits the measured activity by half. For `C[C@H](Oc1cc(N2CCN(C)C3(CCOC3)C2)nc(-c2noc3c2CCC[C@@]32CCCc3sc(N)c(C#N)c32)n1)[C@@H]1C[C@@H](F)CN1C` (stereo partly shown) [II-151], the values for the IC50 in the assay on NCI-H2122 cells and in the assay on GP2D cells were 3580 nM and 32 nM, respectively.

As for `C[C@H](Oc1cc(-c2ccn(C)n2)nc(-c2noc3c2CCC[C@@]32CCCc3sc(N)c(C#N)c32)n1)[C@@H]1C[C@H](F)CN1C` [II-144], the IC50 was 3690 nM in the assay on NCI-H2122 cells and greater than 1000 nM in the assay with GP2D cells.

With `C[C@H](Oc1cc(-n2cc3ccn(C[C@H]4CCOC4)c(=O)c3n2)nc(-c2noc3c2CCC[C@@]32CCCc3sc(N)c(C#N)c32)n1)[C@@H]1CCCN1C` [II-204], the IC50 in the assay with MKN1 cells (setting [1]) was found to be 33 nM; in the assay with MKN1 cells (setting [2]), 48 nM; in the assay with GP2D cells it was 122 nM.

Consider `C[C@H](Oc1cc(-n2ccc(C(=O)N[C@@H]3CCOC3)n2)nc(-c2noc3c2CCC[C@@]32CCCc3sc(N)c(C#N)c32)n1)[C@@H]1CCCN1C` [II-192], for which the IC50 with MKN1 cells (setting [3]) worked out at 25 nM; in the assay on MKN1 cells (setting [1]), 26 nM; with MKN1 cells (setting [2]), 9 nM; in the assay on GP2D cells it was 31 nM.

For the compound `CO[C@H]1CCN(C)[C@@H]1[C@H](C)Oc1cc(N2CCN(C)C3(CC3)C2)nc(-c2noc3c2CCC[C@@]32CCCc3sc(N)c(C#N)c32)n1` [II-186], the values for the IC50 in the assay with MKN1 cells (setting [1]), in the assay on MKN1 cells (setting [2]) and with GP2D cells were 313 nM, 260 nM and 2 nM, respectively.

`C[C@H](Oc1nc(-c2noc3c2CCC[C@@]32CCCc3sc(N)c(C#N)c32)nc(N2CCNC3(CC3)C2)c1F)[C@@H]1C[C@@H](F)CN1C` [II-155]: the 50% inhibitory concentration (IC50) with MKN1 cells (setting [1]) came out at 284 nM; in the assay on MKN1 cells (setting [2]) it was 633 nM; with NCI-H2122 cells, 929 nM; in the assay with GP2D cells, 1 nM.

With `C[C@H](Oc1cc(C2=CCNCC2)nc(-c2noc3c2CCC[C@@]32CCCc3sc(N)c(C#N)c32)n1)[C@@H]1CCCN1C` [II-164], the values for the IC50 in the assay on MKN1 cells (setting [2]), with NCI-H2122 cells and in the assay with GP2D cells were 1070 nM, 4580 nM and 23 nM, respectively.

Turning to `C[C@H](Oc1cc(N2CCNC3(CC3)C2)nc(-c2noc3c2CCC[C@@]32CCCc3sc(N)c(C#N)c32)n1)[C@@H]1C[C@@H](F)CN1C` [II-165], the IC50 in the assay on MKN1 cells (setting [1]) stood at 427 nM; with NCI-H2122 cells, 1790 nM; in the assay with GP2D cells it was 1 nM.

For the compound `C[C@H](Oc1cc(-n2cc3c(n2)CNC3)nc(-c2noc3c2CCC[C@@]32CCCc3sc(N)c(C#N)c32)n1)[C@@H]1CCCN1C` [II-168], the IC50 was 176 nM in the assay on MKN1 cells (setting [2]), 1770 nM in the assay with NCI-H2122 cells and 12 nM in the assay with GP2D cells.

On to `CO[C@@H]1C[C@@H]([C@H](C)Oc2cc(N3CCNC4(CC4)C3)nc(-c3noc4c3CCC[C@@]43CCCc4sc(N)c(C#N)c43)n2)N(C)C1` [II-187], for which the IC50 in the assay on MKN1 cells (setting [1]) turned out to be 383 nM; in the assay on MKN1 cells (setting [2]), 357 nM; with GP2D cells it was 1 nM.

In the case of `C[C@H](Oc1cc(-n2ccc(-c3cnccn3)n2)nc(-c2noc3c2CCC[C@@]32CCCc3sc(N)c(C#N)c32)n1)[C@@H]1CCCN1C` [II-130], the half-maximal inhibitory concentration (IC50) is 216 nM in the assay on MKN1 cells (setting [3]), 297 nM in the assay with MKN1 cells (setting [2]), 221 nM in the assay with NCI-H2122 cells and 233 nM with GP2D cells.

Regarding `C[C@H](Oc1cc(N2CCN(C)C3(COC3)C2)nc(-c2noc3c2CCC[C@@]32CCCc3sc(N)c(C#N)c32)n1)[C@@H]1C[C@@H](F)CN1C` [II-148], the IC50 with NCI-H2122 cells was determined as 2220 nM; in the assay with GP2D cells, 11 nM.

In the case of `C[C@H](Oc1cc(N2CCNC[C@]23CCOC3)nc(-c2onc3c2CCC[C@@]32CCCc3sc(N)c(C#N)c32)n1)[C@@H]1CCCN1C` [I-12], the IC50 came to 3280 nM in the assay with NCI-H2122 cells and 1 nM in the assay on GP2D cells.

As for `CCN1CCN(c2cc(O[C@@H](C)[C@@H]3C[C@@H](F)CN3C)nc(-c3noc4c3CCC[C@@]43CCCc4sc(N)c(C#N)c43)n2)CC12CC2` [II-185], the IC50 with MKN1 cells (setting [1]) was greater than 949 nM; in the assay on MKN1 cells (setting [2]) it was 1900 nM; in the assay on GP2D cells, 15 nM.

Turning to `C[C@H](Oc1cc(-n2cc3c(n2)CN(C)C3)nc(-c2noc3c2CCC[C@@]32CCCc3sc(N)c(C#N)c32)n1)[C@@H]1CCCN1C` [II-174], the IC50 was found to be 341 nM with MKN1 cells (setting [1]) and 3 nM in the assay with GP2D cells.

Regarding `C[C@H](Oc1cc(N2CCOC2=O)nc(-c2noc3c2CCC[C@@]32CCCc3sc(N)c(C#N)c32)n1)[C@@H]1CCCN1C` [II-143], the IC50 in the assay on NCI-H2122 cells is 584 nM; in the assay with GP2D cells it was 59 nM.

With `C[C@H](Oc1cc(N2CCN(C)C3(CC3)C2)nc(-c2noc3c2CCC[C@@]32CCCc3sc(N)c(C#N)c32)n1)[C@@H]1C[C@@H](F)CN1C` [II-149], the IC50 with MKN1 cells (setting [1]) worked out at 467 nM; in the assay with NCI-H2122 cells, 2550 nM; in the assay with GP2D cells it was 8 nM.

In the case of `C[C@H](Oc1cc(-c2cccc(C(N)=O)c2)nc(-c2noc3c2CCC[C@@]32CCCc3sc(N)c(C#N)c32)n1)[C@@H]1CCCN1C` [II-133], the IC50 in the assay with MKN1 cells (setting [2]) turned out to be 391 nM; with NCI-H2122 cells it was 180 nM; with GP2D cells it was 301 nM.

Consider `C[C@H](Oc1cc(N2CCNC3(COC3)C2)nc(-c2noc3c2CCC[C@@]32CCCc3sc(N)c(C#N)c32)n1)[C@@H]1C[C@@H](F)CN1C` [II-150], for which the values for the IC50 in the assay with MKN1 cells (setting [1]), in the assay on NCI-H2122 cells and in the assay with GP2D cells were 32 nM, 2510 nM and 1 nM, respectively.

`C[C@H](Oc1cc(-n2cc3c(n2)CCN(C)C3)nc(-c2noc3c2CCC[C@@]32CCCc3sc(N)c(C#N)c32)n1)[C@@H]1CCCN1C` [II-141]: the IC50 in the assay on NCI-H2122 cells was 2830 nM; with GP2D cells it was 4 nM.

Regarding `C[C@H](Oc1cc(-c2cn(C)nn2)nc(-c2onc3c2CCC[C@@]32CCCc3sc(N)c(C#N)c32)n1)[C@@H]1CCCN1C` [I-16], the IC50 in the assay on GP2D cells was 673 nM.

As for `C[C@H](Oc1cc(-n2cc3ccn([C@@H]4CCOC4)c(=O)c3n2)nc(-c2noc3c2CCC[C@@]32CCCc3sc(N)c(C#N)c32)n1)[C@@H]1CCCN1C` [II-203], the IC50 amounted to 41 nM with MKN1 cells (setting [1]), 63 nM in the assay on MKN1 cells (setting [2]) and 137 nM with GP2D cells.

Consider `CC(C)N1CCCN(c2cc(-n3ccnc3)nc(-c3noc4c3CCC[C@@]43CCCc4sc(N)c(C#N)c43)n2)[C@@H](C)C1` [II-169], for which the values for the IC50 with NCI-H2122 cells and in the assay on GP2D cells were 2280 nM and 1870 nM, respectively.

For `C[C@H](Oc1cc(N2C[C@H](C)N(C)[C@@H](C)C2)nc(-c2noc3c2CCC[C@@]32CCCc3sc(N)c(C#N)c32)n1)[C@@H]1CCCN1C` [II-173], the results for the IC50 with NCI-H2122 cells and with GP2D cells were 1460 nM and 107 nM, respectively.

In the assay with GP2D cells, `CO[C@@H]1C[C@@H]([C@H](C)Oc2cc(N3CCN(C)C4(CC4)C3)nc(-c3noc4c3CCC[C@@]43CCCc4sc(N)c(C#N)c43)n2)N(C)C1` [II-152] came in with an IC50 of 13 nM.

Regarding `C[C@H](Oc1nc(-c2noc3c2CCC[C@@]32CCCc3sc(N)c(C#N)c32)nc(N2C[C@H](C)NC3(CC3)C2)c1F)[C@@H]1C[C@@H](F)CN1C` [II-157], the IC50 in the assay with GP2D cells amounted to 2 nM.

Compound `C[C@H](Oc1nc(-c2noc3c2CCC[C@@]32CCCc3sc(N)c(C#N)c32)nc(N2CCNC3(CC3)C2)c1Cl)[C@@H]1C[C@@H](F)CN1C` [II-156] gave an IC50 in the assay on GP2D cells of 1 nM.

For `C[C@H](Oc1cc(-n2cc3c(n2)CNC3)nc(-c2noc3c2CCC[C@@]32CCCc3sc(N)c(C#N)c32)n1)[C@@H]1C[C@@H](F)CN1C` [II-154], the IC50 in the assay on GP2D cells came out at 39 nM.

As to `C[C@H](Oc1cc(N2CCN[C@@H](C)C2)nc(-c2noc3c2CCC[C@@]32CCCc3sc(N)c(C#N)c32)n1)[C@@H]1CCCN1C` [II-162], the IC50 with MKN1 cells (setting [2]) was 411 nM; in the assay with NCI-H2122 cells it was 3320 nM; in the assay on GP2D cells, 30 nM.

Consider `C[C@H](Oc1cc(N2CCN(C)C3(CC3)C2)nc(-c2noc3c2CCC[C@@]32CCCc3sc(N)c(C#N)c32)n1)[C@@H]1CCCN1C` [II-171], for which the IC50 in the assay on NCI-H2122 cells was determined as 3060 nM; in the assay with GP2D cells it was 5 nM.
